In patent US9221809B2 (MERCK SHARP & DOHME CORP., priority 2011, dated 2015) one finds IC50 data, which are given here for 30 molecules.

Where a name gives a salt, the structure may show the parent alone.

For the first assay, the target named is IRAK4 (Homo sapiens (Human), UniProt Q9NWZ3). Description: IRAK4 kinase activity, IMAP fluorescence polarization assay. It counts as biochemical. Conditions: 100 μM ATP, 0.5 nM GST tagged IRAK4; read-out: IRAK4 IC50. The method in brief: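 GST-tagged IRAK4 at 0.5 nM phosphorylates 100 nM fluorescent peptide substrate with 100 μM ATP in pH 7.2 Tris buffer containing MgCl2, DTT and Tween 20, 30 min at 25 °C. Reaction stopped with IMAP binding reagent; phosphorylation read as increased fluorescence polarization.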
Chain of IRAK4 (Q9NWZ3 whole entry): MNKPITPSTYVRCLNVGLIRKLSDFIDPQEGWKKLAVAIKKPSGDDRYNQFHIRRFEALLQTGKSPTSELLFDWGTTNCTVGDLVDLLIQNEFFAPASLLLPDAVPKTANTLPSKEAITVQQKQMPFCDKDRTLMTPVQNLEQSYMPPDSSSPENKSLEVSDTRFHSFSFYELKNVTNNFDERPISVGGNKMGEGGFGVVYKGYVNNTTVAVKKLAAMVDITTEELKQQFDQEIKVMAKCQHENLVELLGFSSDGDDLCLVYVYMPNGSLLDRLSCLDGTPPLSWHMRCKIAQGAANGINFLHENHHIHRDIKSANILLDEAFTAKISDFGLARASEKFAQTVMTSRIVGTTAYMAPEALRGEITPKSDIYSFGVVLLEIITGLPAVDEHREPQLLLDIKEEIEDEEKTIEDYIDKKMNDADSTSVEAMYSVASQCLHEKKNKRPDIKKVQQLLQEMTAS
For orientation: Fluorescence polarisation rises when a labelled molecule tumbles more slowly, as on binding a larger partner.
As for `O=c1[nH]c(N2CCOCC2)nc(N[C@@H]2CCCNC2)c1-c1nc2cc(C(F)(F)F)ccc2s1` [Example 337, 2-(morpholin-4-yl)-6-[[(3R)-piperidin-3-yl]amino]-5-[5-(trifluoromethyl)-1,3-benzothiazol-2-yl]-3,4-dihydropyrimidin-4-one], the IC50 amounted to 70 nM.

Consider `O=c1[nH]c(N2CCOCC2)nc(N[C@@H]2CCCNC2)c1-c1nc2cccc(C(F)(F)F)c2s1` [Example 338, (R)-2-morpholino-6-(piperidin-3-ylamino)-5-(7-(trifluoromethyl)benzo[d]thiazol-2-yl)pyrimidin-4(3H)-one], for which the IC50 was determined as 520 nM.

Take `O=c1[nH]c(N2CCOCC2)nc(N[C@@H]2CCCNC2)c1-c1nc2cccc(Cl)c2s1` [Example 339, (R)-5-(7-chlorobenzo[d]thiazol-2-yl)-2-morpholino-6-(piperidin-3-ylamino)pyrimidin-4(3H)-one]: the IC50 amounted to 180 nM.

The same assay, now with this note: 100 μM ATP; read-out: IC50.
As to `CN(Cc1ccccc1)c1nc(N[C@@H]2CCCNC2)c(-c2nc3ccccc3s2)c(=O)[nH]1` [Example 307, 5-(1,3-benzothiazol-2-yl)-2-[benzyl(methyl)amino]-6-[[(3R)-piperidin-3-yl]amino]-3,4-dihydropyrimidin-4-one dihydrocbloride], the concentration for half-maximal inhibition (IC50) came to 310 nM.

For `Cc1ccc2sc(-c3c(N[C@@H]4CCCNC4)nc(N4CCOCC4)[nH]c3=O)nc2c1` [Example 308, 5-(5-methyl-1,3-benzothiazol-2-yl)-2-(morpholin-4-yl)-6-[[(3R)-piperidin-3-yl]amino]-3,4-dihydropyrimidin-4-one; formic acid], the IC50 came out at 120 nM.

Regarding `O=c1[nH]c(N2CCCCC2)nc(N[C@@H]2CCCNC2)c1-c1nc2ccccc2s1` [Example 309, 5-(1,3-benzothiazol-2-yl)-2-(piperidin-1-yl)-6-[[(3R)-piperidin-3-yl]amino]-3,4-dihydropyrimidin-4-one hydrochloride], the IC50 was 71 nM.

In the case of `CN(c1nc(N[C@@H]2CCCNC2)c(-c2nc3ccccc3s2)c(=O)[nH]1)[C@H](CO)c1ccccc1` [Example 310, 5-(1,3-benzothiazol-2-yl)-2-[[(1S)-2-hydroxy-1-phenylethyl](methyl)amino]-6-[[(3R)-piperidin-3-yl]amino]-3,4-dihydropyrimidin-4-one; trifluoroacetic acid], the IC50 was determined as 250 nM.

With `O=c1[nH]c(NCCO)nc(N[C@@H]2CCCNC2)c1-c1nc2ccccc2s1` [Example 311, 5-(1,3-benzothiazol-2-yl)-2-[(2-hydroxyethyl)amino]-6-[[(3R)-piperidin-3-yl]amino]-3,4-dihydropyrimidin-4-one; trifluoroacetic acid], the IC50 came to 450 nM.

Turning to `O=c1[nH]c(N2CCC(F)(F)CC2)nc(N[C@@H]2CCCNC2)c1-c1nc2ccccc2s1` [Example 312], the IC50 came out at 78 nM.

For the molecule `O=c1[nH]c(N2CCC3CCCCC3C2)nc(N[C@@H]2CCCNC2)c1-c1nc2ccccc2s1` (stereo partly drawn) [Example 313, 5-(1,3-benzothiazol-2-yl)-(decahydroisoquinolin-2-yl)-6-[[(3R)piperidin-3-yl]amino]-3,4-dihydropyrimidin-4-one; trifluoroacetic acid], the 50% inhibitory concentration (IC50) was found to be 330 nM.

As to `CC1CCCCN1c1nc(N[C@@H]2CCCNC2)c(-c2nc3ccccc3s2)c(=O)[nH]1` (stereo partly drawn) [Example 314], the IC50 worked out at 280 nM.

`O=c1[nH]c(N2CC[C@@H](O)C2)nc(N[C@@H]2CCCNC2)c1-c1nc2ccccc2s1` [Example 315]: the IC50 came to 17 nM.

Consider `CC(=O)N1CCN(c2nc(N[C@@H]3CCCNC3)c(-c3nc4ccccc4s3)c(=O)[nH]2)CC1` [Example 316, 2-(4-acetylpiperazin-1-yl)-5-(1,3-benzothiazol-2-yl)-6-[[(3R)-piperidin-3-yl]amino]-3,4-dihydropyrimidin-4-one], for which the half-inhibitory concentration (IC50) came to 450 nM.

For `O=c1[nH]c(N2CC3(COC3)C2)nc(N[C@@H]2CCCNC2)c1-c1nc2ccccc2s1` [Example 317, 5-(1,3-benzothiazol-2-yl)-2-[2-oxa-6-azaspiro[3.3]heptan-6-yl]-6-[[(3R)-piperidin-3-yl]amino]-3,4-dihydropyrimidin-4-one], the IC50 came to 25 nM.

Consider `NC(=O)C1CCN(c2nc(N[C@@H]3CCCNC3)c(-c3nc4ccccc4s3)c(=O)[nH]2)CC1` [Example 318, 1-[5-(1,3-benzothiazol-2-yl)-6-oxo-4-[[(3R)-piperidin-3-yl]amino]-1,6-dihydropyrimidin-2-yl]piperidine-4-carboxamide hydrochloride], for which the IC50 is 74 nM.

Regarding `CC1(c2ccc(Cl)cc2)CN(c2nc(N[C@@H]3CCCNC3)c(-c3nc4ccccc4s3)c(=O)[nH]2)CCO1` (stereo partly drawn) [Example 319, 5-(benzo[d]thiazol-2-yl)-2-(2-(4-chlorophenyl)-2-methylmorpholino)-6-((R)-piperidin-3-ylamino)pyrimidin-4(3H)-one hydrochloride], the IC50 worked out at 2500 nM.

As for `O=C(O)C1CN(c2nc(N[C@@H]3CCCNC3)c(-c3nc4ccccc4s3)c(=O)[nH]2)CCO1` (stereo partly drawn) [Example 320, 4-[5-(1,3-benzothiazol-2-yl)-6-oxo-4-[[(3R)-piperidin-3-yl]amino]-1,6-dihydropyrimidin-2-yl]morpholine-2-carboxylic acid], the IC50 was 250 nM.

`CCOC(=O)C1CN(c2nc(N[C@@H]3CCCNC3)c(-c3nc4ccccc4s3)c(=O)[nH]2)CCO1` (stereo partly drawn) [Example 321, ethyl 4-[5-(1,3-benzothiazol-2-yl)-6-oxo-4-[[(3R)-piperidin-3-yl]amino]-1,6-dihydropyrimidin-2-yl]morpholine-2-carboxylate; trifluoroacetic acid]: the IC50 is 180 nM.

Regarding `NC1CCN(c2nc(N[C@@H]3CCCNC3)c(-c3nc4ccccc4s3)c(=O)[nH]2)CC1` [Example 322, 2-(4-aminopiperidin-1-yl)-5-(1,3-benzothiazol-2-yl)-6-[[(3R)-piperidin-3-yl]amino]-3,4-dihydropyrimidin-4-one; trifluoroacetic acid], the IC50 is 240 nM.

`O=C(NC1CCN(c2nc(N[C@@H]3CCCNC3)c(-c3nc4ccccc4s3)c(=O)[nH]2)CC1)OCc1ccccc1` [Example 323, Benzyl N-[1-[5-(1,3-benzothiazol-2-yl)-6-oxo-4-[[(3R)-piperidin-3-yl]amino]-1,6-dihydropyrimidin-2-yl]piperidin-4-yl]carbamate trifluoroacetic acid]: the IC50 stood at 100 nM.

Regarding `O=c1[nH]c(N2CCC3(CCN(c4ncccn4)C3)C2)nc(N[C@@H]2CCCNC2)c1-c1nc2ccccc2s1` (stereo partly drawn) [Example 324, 5-(1,3-benzothiazol-2-yl)-6-[[(3R)-piperidin-3-yl]amino]-2-[7-(pyrimidin-2-yl)-2,7-diazaspiro[4.4]nonan-2-yl]-3,4-dihydropyrimidin-4-one trifluoroacetic acid], the IC50 turned out to be 12 nM.

Consider `CN1CCC2(CCN(c3nc(N[C@@H]4CCCNC4)c(-c4nc5ccccc5s4)c(=O)[nH]3)C2)C1` (stereo partly drawn) [Example 325, 5-(1,3-benzothiazol-2-yl)-2-[7-methyl-2,7-diazaspiro[4.4]nonan-2-yl]-6-[[(3R)-piperidin-3-yl]amino]-3,4-dihydropyrimidin-4-one], for which the IC50 is 24 nM.

As for `CC(=O)N1CCC2(CCN(c3nc(N[C@@H]4CCCNC4)c(-c4nc5ccccc5s4)c(=O)[nH]3)C2)C1` (stereo partly drawn) [Example 326, 2-[7-acetyl-2,7-diazaspiro[4.4]nonan-2-yl]-5-(1,3-benzothiazol-2-yl)-6-[[(3R)-piperidin-3-yl]amino]-3,4-dihydropyrimidin-4-one], the IC50 turned out to be 13 nM.

For `O=c1[nH]c(N2CCC3(CCN(Cc4ccccc4)C3)C2)nc(N[C@@H]2CCCNC2)c1-c1nc2ccccc2s1` (stereo partly drawn) [Example 327, 5-(1,3-benzothiazol-2-yl)-2-[7-benzyl-2,7-diazaspiro[4.4]nonan-2-yl]-6-[[(3R)-piperidin-3-yl]amino]-3,4-dihydropyrimidin-4-one; trifluoroacetic acid], the IC50 stood at 27 nM.

With `O=c1[nH]c(N2CCC3(CCN(S(=O)(=O)c4ccccc4)C3)C2)nc(N[C@@H]2CCCNC2)c1-c1nc2ccccc2s1` (stereo partly drawn) [Example 328], the IC50 was 23 nM.

Take `COc1ccc(N2CCC3(CCN(c4nc(N[C@@H]5CCCNC5)c(-c5nc6ccccc6s5)c(=O)[nH]4)C3)C2)cc1` (stereo partly drawn) [Example 330, 5-(1,3-benzothiazol-2-yl)-2-[7-(4-methoxyphenyl)-2,7-diazaspiro[4.4]nonan-2-yl]-6-[[(3R)-piperidin-3-yl]amino]-3,4-dihydropyrimidin-4-one]: the IC50 came out at 21 nM.

Consider `O=c1[nH]c(N2CCC3(CCN(c4ccc(Cl)cc4)C3)C2)nc(N[C@@H]2CCCNC2)c1-c1nc2ccccc2s1` (stereo partly drawn) [Example 331, 5-(1,3-benzothiazol-2-yl)-2-[7-(4-chlorophenyl)-2,7-diazaspiro[4.4]nonan-2-yl]-6-[[(3R)-piperidin-3-yl]amino]-3,4-dihydropyrimidin-4-one trifluoroacetic acid], for which the IC50 amounted to 47 nM.

Consider `O=c1[nH]c(N2CCC(NCc3ccccc3)CC2)nc(N[C@@H]2CCCNC2)c1-c1nc2ccccc2s1` [Example 332, 5-(1,3-benzothiazol-2-yl)-2-[4-(benzylamino)piperidin-1-yl]-6-[[(3R)-piperidin-3-yl]amino]-3,4-dihydropyrimidin-4-one trifluoroacetic acid], for which the IC50 amounted to 110 nM.

Take `CC(=O)NC1CCN(c2nc(N[C@@H]3CCCNC3)c(-c3nc4ccccc4s3)c(=O)[nH]2)CC1` [Example 333, N-[1-[5-(1,3-benzothiazol-2-yl)-6-oxo-4-[[(3R)-piperidin-3-yl]amino]-1,6-dihydropyrimidin-2-yl]piperidin-4-yl]acetamide trifluoroacetic acid]: the IC50 was determined as 94 nM.

As to `O=c1[nH]c(N2CCC3(CCN(c4ccccc4)C3)C2)nc(N[C@@H]2CCCNC2)c1-c1nc2ccccc2s1` (stereo partly drawn) [Example 334, 5-(1,3-benzothiazol-2-yl)-2-[7-phenyl-2,7-diazaspiro[4.4]nonan-2-yl]-6-[[(3R)-piperidin-3-yl]amino]-3,4-dihydropyrimidin-4-one], the IC50 is 21 nM.

Usually IC50 stands for the midpoint of a concentration-inhibition curve.
